Molecular target: Glutamate NMDA receptor
Experiment: Displacement of [3H]TCP from NMDA receptor in rat brain membrane
Type: cell membranes

Going from NC1(c2ccc(F)cc2)CCCCC1 to NC1(c2cccc(O)c2)CCCCC1, the Ki falls from 5130 nM to 225 nM (23-fold). The second binds more tightly here.

c1ccc(C2(N3CCCCC3)CCCCC2)cc1 [PHENCYCLIDINE] showed a Ki of 70 nM.

Source: ChEMBL document CHEMBL1140627, “Adaptive neuro-fuzzy inference system (ANFIS): a new approach to predictive modeling in QSAR applications: a study of neuro-fuzzy modeling of PCP-based NMDA receptor antagonists” (Bioorg Med Chem, 2007)
